Assay results taken from ChEMBL document CHEMBL1201862, “PubChem BioAssay data set” (2004).
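Tested at 5 concentrations; 48 h exposure; 96-well plates; endpoints linearly interpolated, else capped at highest concentration. GI50 = concentration required for 50% inhibition of growth.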 Calls of active or inactive are those of the source. Cut-off read from the data, not from the text of the source: active = GI50 up to about 1.1 µM and inactive = higher.

Columns and labels:
Test in all cases: DTP human tumour cell line panel, 48 h
SNB-75 = system: SNB-75
NCI-H23 = system: NCI-H23
NCI-H522 = system: NCI-H522
786-0 = system: 786-0
OVCAR-8 = system: OVCAR-8
RPMI-8226 = system: RPMI-8226
RXF 393 = system: RXF 393
MDA-MB-435 = system: MDA-MB-435
IGROV-1 = system: IGROV-1
EKVX = system: EKVX
NCI/ADR-RES = system: NCI/ADR-RES
SF-295 = system: SF-295
K562 = system: K562
MDA-MB-231 = system: MDA-MB-231
KM12 = system: KM12
TK-10 = system: TK-10
SNB-19 = system: SNB-19
CCRF-CEM = system: CCRF-CEM
OVCAR-4 = system: OVCAR-4

## CC(C)(C)NC(=O)CCC1C(C(=O)NC(C)(C)C)C2(Cl)C(Cl)=C(Cl)C1(Cl)C2(Cl)Cl (centres undefined)
SNB-75
  GI50: > 100 µM (inactive)
NCI-H23
  GI50: > 100 µM (inactive)
NCI-H522
  GI50: > 100 µM (inactive)
786-0
  GI50: > 100 µM (inactive)
OVCAR-8
  GI50: > 100 µM (inactive)
RPMI-8226
  GI50: > 100 µM (inactive)
RXF 393
  GI50: > 100 µM (inactive)
MDA-MB-435
  GI50: > 100 µM (inactive)
IGROV-1
  GI50: > 100 µM (inactive)
EKVX
  GI50: > 100 µM (inactive)
NCI/ADR-RES
  GI50: > 100 µM (inactive)
SF-295
  GI50: > 100 µM (inactive)
K562
  GI50: > 100 µM (inactive)
MDA-MB-231
  GI50: > 100 µM (inactive)
KM12
  GI50: > 100 µM (inactive)
TK-10
  GI50: > 100 µM (inactive)
SNB-19
  GI50: > 100 µM (inactive)
CCRF-CEM
  GI50: > 100 µM (inactive)
OVCAR-4
  GI50: > 100 µM (inactive)

## CN(C)CCNC1=Nc2ccccc2C(=S)N2CSCC12 (centres undefined)
SNB-75
  GI50: > 100 µM (inactive)
NCI-H522
  GI50: > 100 µM (inactive)
786-0
  GI50: > 100 µM (inactive)
OVCAR-8
  GI50: > 100 µM (inactive)
RPMI-8226
  GI50: > 100 µM (inactive)
RXF 393
  GI50: 59.3 µM (inactive)
MDA-MB-435
  GI50: > 100 µM (inactive)
IGROV-1
  GI50: > 100 µM (inactive)
EKVX
  GI50: > 100 µM (inactive)
NCI/ADR-RES
  GI50: > 100 µM (inactive)
SF-295
  GI50: > 100 µM (inactive)
K562
  GI50: > 100 µM (inactive)
MDA-MB-231
  GI50: > 100 µM (inactive)
KM12
  GI50: > 100 µM (inactive)
TK-10
  GI50: > 100 µM (inactive)
SNB-19
  GI50: > 100 µM (inactive)
CCRF-CEM
  GI50: > 100 µM (inactive)
OVCAR-4
  GI50: > 100 µM (inactive)

## O=C(/C=C1\C[C@H]2C=Nc3ccccc3C(=O)N2C1)NCCCCCNC(=O)/C=C1\C[C@H]2C=Nc3ccccc3C(=O)N2C1
SNB-75
  GI50: 13.6 µM (inactive)
NCI-H23
  GI50: 9.91 µM (inactive)
NCI-H522
  GI50: 0.726 µM (active)
786-0
  GI50: 1.84 µM (inactive)
OVCAR-8
  GI50: 2.99 µM (inactive)
RPMI-8226
  GI50: 4.28 µM (inactive)
RXF 393
  GI50: 3.56 µM (inactive)
MDA-MB-435
  GI50: 4.7 µM (inactive)
IGROV-1
  GI50: 11 µM (inactive)
EKVX
  GI50: 18 µM (inactive)
NCI/ADR-RES
  GI50: 24.3 µM (inactive)
SF-295
  GI50: 18.3 µM (inactive)
K562
  GI50: 2.88 µM (inactive)
MDA-MB-231
  GI50: 16.2 µM (inactive)
KM12
  GI50: 17.7 µM (inactive)
TK-10
  GI50: 4.32 µM (inactive)
SNB-19
  GI50: 16.1 µM (inactive)
CCRF-CEM
  GI50: 1.05 µM (active)
OVCAR-4
  GI50: 7.53 µM (inactive)

## Cc1c(NC(=S)NN)c(=O)n(-c2ccccc2)n1C
SNB-75
  GI50: 20 µM (inactive)
NCI-H522
  GI50: 0.637 µM (active)
786-0
  GI50: > 100 µM (inactive)
OVCAR-8
  GI50: > 100 µM (inactive)
RPMI-8226
  GI50: > 100 µM (inactive)
RXF 393
  GI50: > 100 µM (inactive)
MDA-MB-435
  GI50: > 100 µM (inactive)
IGROV-1
  GI50: > 100 µM (inactive)
EKVX
  GI50: > 100 µM (inactive)
NCI/ADR-RES
  GI50: > 100 µM (inactive)
SF-295
  GI50: > 100 µM (inactive)
K562
  GI50: > 100 µM (inactive)
MDA-MB-231
  GI50: 0.0796 µM (active)
KM12
  GI50: > 100 µM (inactive)
TK-10
  GI50: > 100 µM (inactive)
SNB-19
  GI50: > 100 µM (inactive)
CCRF-CEM
  GI50: > 100 µM (inactive)
OVCAR-4
  GI50: > 100 µM (inactive)

## COc1ccc(-c2c(C#N)c(S)n(NS(=O)(=O)c3ccccc3)c(=O)c2C#N)cc1
SNB-75
  GI50: > 100 µM (inactive)
NCI-H23
  GI50: 75.2 µM (inactive)
NCI-H522
  GI50: 26.4 µM (inactive)
786-0
  GI50: 35.2 µM (inactive)
OVCAR-8
  GI50: 48.8 µM (inactive)
RPMI-8226
  GI50: 42.8 µM (inactive)
RXF 393
  GI50: 37.8 µM (inactive)
MDA-MB-435
  GI50: 34.3 µM (inactive)
IGROV-1
  GI50: 31.9 µM (inactive)
NCI/ADR-RES
  GI50: 70.5 µM (inactive)
SF-295
  GI50: 77.3 µM (inactive)
K562
  GI50: 42.5 µM (inactive)
MDA-MB-231
  GI50: 88.9 µM (inactive)
KM12
  GI50: 70.6 µM (inactive)
TK-10
  GI50: 29.3 µM (inactive)
SNB-19
  GI50: > 100 µM (inactive)
CCRF-CEM
  GI50: 24.3 µM (inactive)
OVCAR-4
  GI50: 46.6 µM (inactive)

## COc1cc2c(cc1OC)C(=O)/C(=C/c1cc(C)c(O)c(C)c1)C2
SNB-75
  GI50: < 0.01 µM (active)
NCI-H23
  GI50: < 0.01 µM (active)
NCI-H522
  GI50: < 0.01 µM (active)
786-0
  GI50: < 0.0184 µM (active)
RPMI-8226
  GI50: < 0.01 µM (active)
RXF 393
  GI50: < 0.0504 µM (active)
MDA-MB-435
  GI50: < 0.01 µM (active)
IGROV-1
  GI50: < 0.0166 µM (active)
EKVX
  GI50: < 0.01 µM (active)
NCI/ADR-RES
  GI50: 0.403 µM (active)
SF-295
  GI50: < 0.018 µM (active)
K562
  GI50: < 0.01 µM (active)
MDA-MB-231
  GI50: 0.0171 µM (active)
KM12
  GI50: < 0.01 µM (active)
TK-10
  GI50: > 76.7 µM (inactive)
CCRF-CEM
  GI50: < 0.01 µM (active)
OVCAR-4
  GI50: > 100 µM (inactive)
